According to US20190127366A1 (LifeSci Pharmaceuticals, Inc., priority 2015, published 2019):

Target: T1, human complement factor D (Homo sapiens, UniProt P00746)
T1 construct: purchased R&D Systems 1824-SE
Test: In vitro enzyme inhibition (Z-Lys-SBzl/DTNB absorbance assay)
Type: biochemical
Settings: Complement Factor D (R&D Systems), substrate Z-Lys-SBzl, A405 nm; read-out: CFD IC50
Description: The ability of the compounds disclosed herein to inhibit human complement factor D inhibitory activity was quantified according to the 12-step protocol provided below. • 1. Prepare assay buffer: 50 mM Tris/HCl, pH 7.5, 1 M NaCl. • 2. Dilute 10 mM Complement Factor D inhibitor Nafamostat Mesilate (Selleckchem, Catalog #S1386) solution from 10000 μM to 9.77 μM in 100% DMSO, 8 concentrations. Then dilute the serial concentrations of Nafamostat Mesilate 20-fold in assay buffer. • 3. Add 10 μl diluted Nafamostat Mesilate duplicated into each of the inhibitor control well of a 96-well plate (Corning, Catalog #3599). Final concentrations were 50 μM, 25 μM, 12.5 μM, 6.25 μM, 3.125 μM, 0.781 μM, 0.195 μM and 0.049 μM. 0.5% DMSO was in each well finally. • 4. Dilute 20 mM test compounds from 10000 μM to […] in 100% DMSO, 6-fold dilution, 8 concentrations. Then dilute the serial concentrations of test compounds 20-fold in assay buffer. • 5. Add 10 μl diluted test compounds duplicated into the 96-well plate. Final concentrations were 50 μM, 8.33 μM, 1.39 μM, 0.23 μM, 0.0386 μM, 0.0064 μM, 0.0011 μM and 0.0002 μM. 0.5% DMSO was in each well finally. • 6. Dilute 20 mM substrate Z-Lys-SBzl (Bachem, Cat #M-1300) to 200 μM in assay buffer with 200 μM DTNB(Sigma, Catalog #D8130). • 7. Dilute 738 ng/μL Complement Factor D (R&D Systems, Catalog #1824-SE) to 6.25 ng/μL in assay buffer. Add 40 μl diluted Complement Factor D in the 96-well plate. • 8. Positive control well contains Complement Factor D without test compound. Negative control well contains neither Complement Factor D nor test compound. Using assay buffer, bring the total volume of all controls to 50 μl. • 9. Pre-incubate the plate for 5 min at room temperature. • 10. Add 50 μl of diluted substrate/DTNB mixture into each well. Mix the reagents completely by shaking the plate gently for 30 sec. • 11. For kinetic reading: Immediately start measuring absorbance (A405 nm) continuously and record data every 30sec for 60 min. • 12. Data analysis • Inhibition activity of compound was evaluated by IC50. IC50 was calculated according the dose-response curve of compound fitted using GraphPadPrism with “log(inhibitor)-response (variable slope)” equation. • % inhibition was calculated by using following equation:
[formula] • Mean(NC): The average value of the negative control wells' A405 nm values. • Mean(PC): The average value of the positive control wells' A405 nm values.
The ability of the compounds in Table 2 to inhibit human complement factor D inhibitory activity was determined.

T1 sequence (P00746 26-253): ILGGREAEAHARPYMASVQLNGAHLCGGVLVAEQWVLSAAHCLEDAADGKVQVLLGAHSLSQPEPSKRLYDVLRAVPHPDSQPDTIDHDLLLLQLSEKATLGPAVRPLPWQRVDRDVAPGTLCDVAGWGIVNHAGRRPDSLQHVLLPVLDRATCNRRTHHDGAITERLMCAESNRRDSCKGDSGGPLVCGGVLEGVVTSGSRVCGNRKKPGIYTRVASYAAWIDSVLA

SMILES | IC50 [µM]
NC(=O)c1nn(CC(=O)N2CC3CC2(C(=O)Nc2cccc(Cl)c2F)C3)c2ccccc12 [Example 150, 2-(2-(3-carbamoyl-1H-indazol-1-yl)acetyl)-N-(3-chloro-2-fluorophenyl)-2-azabicyclo[2.1.1]hexane-1-carboxamide] | > 10
N#Cc1ccc(Cl)c(F)c1CNC(=O)[C@@H]1[C@H]2CC[C@H](C2)N1C(=O)Cn1nc(C(N)=O)c2ccccc21 [Example 119, 1-(2-((1R,3S,4S)-3-((3-chloro-6-cyano-2-fluorobenzyl)carbamoyl)-2-azabicyclo[2.2.1]heptan-2-yl)-2-oxoethyl)-1H-indazole-3-carboxamide] | 1 to 10
NC(=O)c1nn(CC(=O)N2[C@@H]3CC[C@@H](C3)[C@H]2C(=O)NCc2cc(C(=O)O)cc(Cl)c2F)c2ccccc12 [Example 111, 3-(((1R,3S,4S)-2-(2-(3-carbamoyl-1H-indazol-1-yl)acetyl)-2-azabicyclo[2.2.1]heptane-3-carboxamido)methyl)-5-chloro-4-fluorobenzoic acid] | 0.1 to 1
NC(=O)c1nn(CC(=O)N2[C@@H]3CC[C@@H](C3)[C@H]2C(=O)NCc2cc(Cl)ccc2Cl)c2ccccc12 [Example 69, 1-(2-((1R,3S,4S)-3-((2,5-dichlorobenzyl)carbamoyl)-2-azabicyclo[2.2.1]heptan-2-yl)-2-oxoethyl)-1H-indazole-3-carboxamide] | 1 to 10
NC(=O)CC(NC(=O)[C@@H]1[C@H]2CC[C@H](C2)N1C(=O)Cn1nc(C(N)=O)c2ccccc21)c1cccc(Cl)c1F (stereo partly drawn) [Example 144, 1-(2-((1R,3S,4S)-3-((3-amino-1-(3-chloro-2-fluorophenyl)-3-oxopropyl)carbamoyl)-2-azabicyclo[2.2.1]heptan-2-yl)-2-oxoethyl)-1H-indazole-3-carboxamide] | 1 to 10
NC(=O)c1nn(CC(=O)N2[C@H](C(N)=O)C[C@H]2C(=O)NCc2cccc(Cl)c2F)c2ccccc12 (relative stereo) [Example 196, trans-1-(2-(3-carbamoyl-1H-indazol-1-yl)acetyl)-N2-(3-chloro-2-fluorobenzyl)azetidine-2,4-dicarboxamide] | 1 to 10
Cc1cc(C)nc(NC(=O)[C@@H]2[C@H]3CC[C@H](C3)N2C(=O)Cn2nc(C(N)=O)c3ccccc32)c1 [Example 67, 1-(2-((1R,3S,4S)-3-((4,6-dimethylpyridin-2-yl)carbamoyl)-2-azabicyclo[2.2.1]heptan-2-yl)-2-oxoethyl)-1H-indazole-3-carboxamide 2,2,2-trifluoroacetate] | > 10
CC(O)c1nn(CC(=O)N2CC[C@H]2C(=O)NCc2cccc(Cl)c2F)c2ccccc12 (stereo partly drawn) [Example 193, (2S)-N-(3-chloro-2-fluorobenzyl)-1-(2-(3-(1-hydroxyethyl)-1H-indazol-1-yl)acetyl)azetidine-2-carboxamide] | 1 to 10
CC(=O)c1nn(CC(=O)N2[C@@H]3CC[C@@H](C3)[C@H]2C(=O)Nc2cccc(Cl)n2)c2ccc(Br)cc12 [Example 90, (1R,3S,4S)-2-(2-(3-acetyl-5-bromo-1H-indazol-1-yl)acetyl)-N-(6-chloropyridin-2-yl)-2-azabicyclo[2.2.1]heptane-3-carboxamide] | 0.1 to 1
NC(=O)c1nn(CC(=O)N2CCC3CC32C(=O)NCc2cccc(Cl)c2F)c2ccccc12 (stereo not drawn) [Example 147, 1-(2-(1-((3-chloro-2-fluorobenzyl)carbamoyl)-2-azabicyclo[3.1.0]hexan-2-yl)-2-oxoethyl)-1H-indazole-3-carboxamide] | > 10
NC(=O)c1nn(CC(=O)N2[C@@H]3CC[C@@H](C3)[C@H]2C(=O)NC(CC(=O)O)c2cccc(Cl)c2F)c2ccccc12 (stereo partly drawn) [Example 143, 3-((1R,3S,4S)-2-(2-(3-carbamoyl-1H-indazol-1-yl)acetyl)-2-azabicyclo[2.2.1]heptane-3-carboxamido)-3-(3-chloro-2-fluorophenyl)propanoic acid] | 1 to 10
NC(=O)c1ccc(Cl)c(F)c1CNC(=O)[C@@H]1[C@H]2CC[C@H](C2)N1C(=O)Cn1nc(C(N)=O)c2ccccc21 [Example 118, 1-(2-((1R,3S,4S)-3-((6-carbamoyl-3-chloro-2-fluorobenzyl)carbamoyl)-2-azabicyclo[2.2.1]heptan-2-yl)-2-oxoethyl)-1H-indazole-3-carboxamide] | 1 to 10
Cc1ccc2c(c1)c(C(N)=O)nn2CC(=O)N1[C@@H]2CC[C@@H](C2)[C@H]1C(=O)NCc1cccc(Cl)c1F [Example 60, 1-(2-((1R,3S,4S)-3-((3-chloro-2-fluorobenzyl)carbamoyl)-2-azabicyclo[2.2.1]heptan-2-yl)-2-oxoethyl)-5-methyl-1H-indazole-3-carboxamide] | 0.1 to 1

Other lines, results leading:

IC50 [µM] | SMILES
1 to 10 | N#Cc1cccc(NC(=O)[C@@H]2[C@H]3CC[C@H](C3)N2C(=O)Cn2nc(C(N)=O)c3ccccc32)n1 [Example 49, 1-(2-((1R,3S,4S)-3-((6-cyanopyridin-2-yl)carbamoyl)-2-azabicyclo[2.2.1]heptan-2-yl)-2-oxoethyl)-1H-indazole-3-carboxamide]
1 to 10 | CC(C)(C)OC(=O)N1CCN(C(=O)Cn2nc(C(N)=O)c3ccccc32)[C@H](C(=O)Nc2cccc(Cl)n2)C1 [Example 25, (S)-tert-butyl 4-(2-(3-carbamoyl-1H-indazol-1-yl)acetyl)-3-((6-chloropyridin-2-yl)carbamoyl)piperazine-1-carboxylate]
> 10 | O=C(O)c1nn(CC(=O)N2[C@@H]3CC[C@@H](C3)[C@H]2C(=O)Nc2cccc(Cl)n2)c2ccccc12 [Example 84, 1-(2-((1R,3S,4S)-3-((6-chloropyridin-2-yl)carbamoyl)-2-azabicyclo[2.2.1]heptan-2-yl)-2-oxoethyl)-1H-indazole-3-carboxylic acid]
1 to 10 | NC(=O)c1nn(CC(=O)N2[C@H](C(=O)NCc3cccc(Cl)n3)C[C@@H]3CCC[C@@H]32)c2ccccc12 [Example 160, 1-(2-((2S,3aS,6aS)-2-(((6-chloropyridin-2-yl)methyl)carbamoyl)hexahydrocyclopenta[b]pyrrol-1(2H)-yl)-2-oxoethyl)-1H-indazole-3-carboxamide]
1 to 10 | CN1CCN(C(=O)Cn2nc(C(N)=O)c3ccccc32)[C@H](C(=O)Nc2cccc(Cl)n2)C1 [Example 28, (S)-1-(2-(2-((6-chloropyridin-2-yl)carbamoyl)-4-methylpiperazin-1-yl)-2-oxoethyl)-1H-indazole-3-carboxamide]
0.1 to 1 | NC(=O)c1cc(Cl)nc(NC(=O)[C@@H]2[C@H]3CC[C@H](C3)N2C(=O)Cn2nc(C(N)=O)c3ccccc32)c1 [Example 106, 1-(2-((1R,3S,4S)-3-((4-carbamoyl-6-chloropyridin-2-yl)carbamoyl)-2-azabicyclo[2.2.1]heptan-2-yl)-2-oxoethyl)-1H-indazole-3-carboxamide]
0.1 to 1 | COC(=O)c1ccc2c(c1)c(C(N)=O)nn2CC(=O)N1[C@@H]2CC[C@@H](C2)[C@H]1C(=O)Nc1cccc(Cl)n1 [Example 78, methyl 3-carbamoyl-1-(2-((1R,3S,4S)-3-((6-chloropyridin-2-yl)carbamoyl)-2-azabicyclo[2.2.1]heptan-2-yl)-2-oxoethyl)-1H-indazole-5-carboxylate]
0.1 to 1 | NC(=O)c1nn(CC(=O)N2CCCCC[C@H]2C(=O)NCc2cccc(Cl)c2F)c2ccccc12 [Example 31, (S)-1-(2-(2-((3-chloro-2-fluorobenzyl)carbamoyl)azepan-1-yl)-2-oxoethyl)-1H-indazole-3-carboxamide]
